Assay results reported in US20260007613A1, “LONG-ACTING LOW-TOXICITY NOVEL CATIONIC LIPID COMPOUNDS AND COMPOSITION THEREOF” (BEIJING YOUCAREKECHUANG PHARMACEUTICAL TECHNOLOGY CO., LTD., priority 2023, published 2026).
Values joined by “and” are separate entries in the source; they are usually repeats but may differ in a detail not shown here. Identical values can stand only once.

Key:
293T cells [1] = assay: Fluorescent detection of Fluc-mRNA (cell transfection efficiency of LNP formulations); assay type: cell-based
How it was run: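 293T cells were seeded at 10,000/well and cultured overnight, then given LNP carrying […] Fluc-mRNA (cationic:neutral:structured:polymer-conjugated lipid 49:10:39.5:1.5 molar) for 24 h. Luminescence was developed with […] and imaged on IVIS.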

female BALB/C mice = assay: Live imaging in mice: protein expression of Fluc-mRNA delivered by LNP formulations; assay type: in vivo; details: for average radiation intensity, times that of ALC-0315: comparator ALC-0315; for average radiation intensity, times that of HHMA: comparator HHMA; for average radiation intensity, times that of SM-102: comparator SM-102; for expression of mRNA in mice, times that of YK-302: comparator YK-302; for expression amount, times that of YK-309: comparator YK-309; for expression amount, times that of YK-313: comparator YK-313; for expression amount, times that of YK-321: comparator YK-321; for average radiation intensity, times that of compound 21: comparator compound 21; for average radiation intensity, times that of compound 23: comparator compound 23
Procedure: In addition, the protein expression and duration of mRNA in mice delivered by the cationic lipid delivery carriers designed were also verified.
The LNP formulation containing […] Fluc-mRNA was injected intramuscularly into female BALB/C mice aged 4 to 6 weeks old and weighed 17 to 19 g, and the mice were intraperitoneally injected with fluorescent imaging substrate at specific time points after administration (6 h, 24 h, 48 h and 7 d), where the mice were free to move for 5 minutes, and then the average radiation intensity (corresponding to fluorescence expression intensity) of the protein expression of the mRNA carried by the LNP in the mice was detected by the IVIS Spectrum small animal live imaging device.

[2] = Particle size and polydispersity index (PDI) of lipid nanoparticles by dynamic light scattering; assay type: physicochemical; details: LNP formulation prepared from the cationic lipid, 25° C.
Procedure: The particle size and polydispersity index (PDI) were determined by dynamic light scattering using Malvern laser particle size analyzer.
10 μL of the liposome solution was weighed, diluted to 1 mL with RNase-free deionized water, and added to the sample pool. Each sample was measured in triplicate. The measurement conditions were: […] scattering angle, and 25° C.

293T cells [3] = assay: Cell survival rate determination (CCK-8); assay type: cell-based
How it was run: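 293T cells plated at 10,000/well (96-well), adhered overnight, then exposed 24 h to Fluc-mRNA LNP (cationic:neutral:structured:PEG-lipid 49:10:39.5:1.5) or Lipofectamine 3000. Viability by CCK-8, 1 h incubation, absorbance at 450 nm.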

For `CCCCCCCCC(CCCCCCCC)COC(=O)CCCCCN(CCCCCC(=O)OCC(CCCCCCCC)CCCCCCCC)C[C@H](O)CN(CC)CCO` [YK-312, (S)-bis(2-octyldecyl)-6,6′-((2-hydroxy-3-((2-hydroxyethyl)(ethyl)amino)propyl)azanediyl)dihexanoate], the “Relative light unit (RLU)” value (293T cells [1]; LNP formulation of Fluc-mRNA, 96-well plate, 24 hours) was 20148450 RLU, the “Multiples (YK-305)” value (293T cells [1]; RLU of YK-305 / RLU of the lipid of the line) was 1.36 and the “Multiples (YK-310)” value (293T cells [1]; RLU of YK-310 / RLU of the lipid of the line) was 1.28. For the same compound, the “Multiples (YK-312)” value (293T cells [1]; RLU of YK-312 / RLU of the lipid of the line) was 1.00, the “Multiples (YK-318)” value (293T cells [1]; RLU of YK-318 / RLU of the lipid of the line, Tables 5, 7, 11) was 0.56 and the “Multiples (YK-319)” value (293T cells [1]; RLU of YK-319 / RLU of the lipid of the line, Tables 5, 7, 11) was 1.21. For the same compound, the “Ratio relative to SM-102” value (293T cells [1]; RLU of the lipid / RLU of SM-102, times that of SM-102) was 12.56, the “cell transfection efficiency, times that of ALC-0315” value (293T cells [1]; comparator ALC-0315) was 9.91 times and the “cell transfection efficiency, times that of HHMA” value (293T cells [1]; comparator HHMA) was 10.04 times. The “cell transfection efficiency, times that of Lipofectamine 3000” value (293T cells [1]; comparator Lipofectamine 3000) was 16.99 times, the “cell transfection efficiency, times that of YK-009” value (293T cells [1]; comparator YK-009) was 3.94 times and the “cell transfection efficiency, times that of YK-301” value (293T cells [1]; comparator YK-301) was 23.92 times. The “cell transfection efficiency, times that of YK-302” value (293T cells [1]; comparator YK-302) was 725.34 times, the “cell transfection efficiency, times that of YK-303” value (293T cells [1]; comparator YK-303) was 32.17 times and the “cell transfection efficiency, times that of YK-304” value (293T cells [1]; comparator YK-304) was ~900 times and 974.01 times. For the same compound, the “cell transfection efficiency, times that of YK-306” value (293T cells [1]; comparator YK-306) was 9.17 times, the “cell transfection efficiency, times that of YK-307” value (293T cells [1]; comparator YK-307) was 4.42 times and the “cell transfection efficiency, times that of YK-308” value (293T cells [1]; comparator YK-308) was 4.00 times. The “cell transfection efficiency, times that of YK-309” value (293T cells [1]; comparator YK-309) was ~160 times and 160.71 times, the “cell transfection efficiency, times that of YK-311” value (293T cells [1]; comparator YK-311) was 10.26 times and the “cell transfection efficiency, times that of YK-313” value (293T cells [1]; comparator YK-313) was 23.25 times. The “cell transfection efficiency, times that of YK-314” value (293T cells [1]; comparator YK-314) was 36.81 times, the “cell transfection efficiency, times that of YK-315” value (293T cells [1]; comparator YK-315) was 12.69 times and the “cell transfection efficiency, times that of YK-316” value (293T cells [1]; comparator YK-316) was 4.19 times. The “cell transfection efficiency, times that of YK-317” value (293T cells [1]; comparator YK-317) was 5.59 times, the “cell transfection efficiency, times that of YK-320” value (293T cells [1]; comparator YK-320) was 7.45 times and the “cell transfection efficiency, times that of YK-321” value (293T cells [1]; comparator YK-321) was 14.36 times. The “cell transfection efficiency, times that of compound 21” value (293T cells [1]; comparator compound 21) was 14.07 times, the “cell transfection efficiency, times that of compound 23” value (293T cells [1]; comparator compound 23) was 14.86 times and the “average radiation intensity, times that of ALC-0315” value (female BALB/C mice; 6 h) was 9.27 times. The “average radiation intensity, times that of HHMA” value (female BALB/C mice; 6 h) was 12.30 times, the “average radiation intensity, times that of SM-102” value (female BALB/C mice; 6 h) was 11.42 times and the “expression of mRNA in mice, times that of YK-302” value (“expression of mRNA in mice” for short) (female BALB/C mice; 6 h) was 549.37 times. For the same compound, the “expression amount, times that of YK-309” value (female BALB/C mice; 6 h) was 121.95 times, the “expression amount, times that of YK-313” value (female BALB/C mice; 6 h) was 18.11 times and the “expression amount, times that of YK-321” value (female BALB/C mice; 6 h) was 15.54 times. The “average radiation intensity, times that of compound 21” value (female BALB/C mice; 6 h) was 13.12 times, the “average radiation intensity, times that of compound 23” value (female BALB/C mice; 6 h) was 13.59 times and the average radiation intensity (female BALB/C mice; 6 h after intramuscular injection) was 8009850. For the same compound, the “average radiation intensity, times that of ALC-0315” value (female BALB/C mice; 24 h) was 11.96 times, the “average radiation intensity, times that of HHMA” value (female BALB/C mice; 24 h) was 19.00 times and the “average radiation intensity, times that of SM-102” value (female BALB/C mice; 24 h) was 18.91 times. For the same compound, the “expression of mRNA in mice” value (female BALB/C mice; 24 h) was 575.97 times, the “expression amount, times that of YK-309” value (female BALB/C mice; 24 h) was 135.46 times and the “expression amount, times that of YK-313” value (female BALB/C mice; 24 h) was 21.82 times. For the same compound, the “expression amount, times that of YK-321” value (female BALB/C mice; 24 h) was 22.51 times, the “average radiation intensity, times that of compound 21” value (female BALB/C mice; 24 h) was 20.74 times and the “average radiation intensity, times that of compound 23” value (female BALB/C mice; 24 h) was 21.80 times. The average radiation intensity (female BALB/C mice; 24 h after intramuscular injection) was 2278520, the “average radiation intensity, times that of ALC-0315” value (female BALB/C mice; 48 h) was 20.43 times and the “average radiation intensity, times that of HHMA” value (female BALB/C mice; 48 h) was 24.98 times. For the same compound, the “average radiation intensity, times that of SM-102” value (female BALB/C mice; 48 h) was 24.98 times, the “expression of mRNA in mice” value (female BALB/C mice; 48 h) was 793.37 times and the “expression amount, times that of YK-309” value (female BALB/C mice; 48 h) was 124.13 times. The “expression amount, times that of YK-313” value (female BALB/C mice; 48 h) was 31.82 times, the “expression amount, times that of YK-321” value (female BALB/C mice; 48 h) was 22.24 times and the “average radiation intensity, times that of compound 21” value (female BALB/C mice; 48 h) was 26.25 times. The “average radiation intensity, times that of compound 23” value (female BALB/C mice; 48 h) was 24.55 times, the average radiation intensity (female BALB/C mice; 48 h after intramuscular injection) was 813200 and the “average radiation intensity, times that of ALC-0315” value (female BALB/C mice; 7 d) was 14.97 times. The “average radiation intensity, times that of HHMA” value (female BALB/C mice; 7 d) was 17.97 times, the “average radiation intensity, times that of SM-102” value (female BALB/C mice; 7 d) was 15.93 times and the “expression of mRNA in mice” value (female BALB/C mice; 7 d) was 274.74 times. For the same compound, the “expression amount, times that of YK-309” value (female BALB/C mice; 7 d) was 84.00 times, the “expression amount, times that of YK-313” value (female BALB/C mice; 7 d) was 32.61 times and the “expression amount, times that of YK-321” value (female BALB/C mice; 7 d) was 16.02 times. The “average radiation intensity, times that of compound 21” value (female BALB/C mice; 7 d) was 16.37 times, the “average radiation intensity, times that of compound 23” value (female BALB/C mice; 7 d) was 16.91 times and the average radiation intensity (female BALB/C mice; 7 d after intramuscular injection) was 105500. For the same compound, the “PDI (%)” value [2] was 33.4%, the “Particle size (nm)” value [2] was 184 nm and the “Cell survival rate (%)” value (293T cells [3]; LNP formulation of Fluc-mRNA, 24 hours, CCK-8) was 76.96%. The “cell survival rate higher than ALC-0315” value (293T cells [3]; difference of survival rates, comparator ALC-0315) was 25.93%, the “cell survival rate higher than HHMA” value (293T cells [3]; difference of survival rates, comparator HHMA) was 10.49% and the “cell survival rate higher than Lipofectamine 3000” value (293T cells [3]; difference of survival rates, comparator Lipofectamine 3000) was 51.95%. For the same compound, the “cell survival rate higher than SM-102” value (293T cells [3]; difference of survival rates, comparator SM-102) was 7.51%, the “cell survival rate higher than YK-301” value (293T cells [3]; difference of survival rates, comparator YK-301) was 24.00% and the “cell survival rate higher than YK-302” value (293T cells [3]; difference of survival rates, comparator YK-302) was 60.53%. For the same compound, the “cell survival rate higher than YK-303” value (293T cells [3]; difference of survival rates, comparator YK-303) was 13.64%, the “cell survival rate higher than YK-304” value (293T cells [3]; difference of survival rates, comparator YK-304) was 42.80% and the “cell survival rate higher than YK-306” value (293T cells [3]; difference of survival rates, comparator YK-306) was 34.77%. For the same compound, the “cell survival rate higher than YK-307” value (293T cells [3]; difference of survival rates, comparator YK-307) was 15.82%, the “cell survival rate higher than YK-308” value (293T cells [3]; difference of survival rates, comparator YK-308) was 5.97% and the “cell survival rate higher than YK-309” value (293T cells [3]; difference of survival rates, comparator YK-309) was 45.35%. For the same compound, the “cell survival rate higher than YK-311” value (293T cells [3]; difference of survival rates, comparator YK-311) was 6.90%, the “cell survival rate higher than YK-313” value (293T cells [3]; difference of survival rates, comparator YK-313) was 8.03% and the “cell survival rate higher than YK-314” value (293T cells [3]; difference of survival rates, comparator YK-314) was 9.08%. For the same compound, the “cell survival rate higher than YK-315” value (293T cells [3]; difference of survival rates, comparator YK-315) was 5.68%, the “cell survival rate higher than YK-316” value (293T cells [3]; difference of survival rates, comparator YK-316) was 6.43% and the “cell survival rate higher than YK-317” value (293T cells [3]; difference of survival rates, comparator YK-317) was 17.78%. The “cell survival rate higher than YK-320” value (293T cells [3]; difference of survival rates, comparator YK-320) was 5.89%, the “cell survival rate higher than YK-321” value (293T cells [3]; difference of survival rates, comparator YK-321) was 4.62% and the “cell survival rate higher than compound 21” value (293T cells [3]; difference of survival rates, comparator compound 21) was 6.75%. The “cell survival rate higher than compound 23” value (293T cells [3]; difference of survival rates, comparator compound 23) was 5.46%.
